{"source": "the Kinase Knowledgebase extract (Sharma et al. 2016)", "data": [{"target": "MAPK14 (human) (UniProt Q16539)", "sequence (Q16539 whole entry, looked up)": "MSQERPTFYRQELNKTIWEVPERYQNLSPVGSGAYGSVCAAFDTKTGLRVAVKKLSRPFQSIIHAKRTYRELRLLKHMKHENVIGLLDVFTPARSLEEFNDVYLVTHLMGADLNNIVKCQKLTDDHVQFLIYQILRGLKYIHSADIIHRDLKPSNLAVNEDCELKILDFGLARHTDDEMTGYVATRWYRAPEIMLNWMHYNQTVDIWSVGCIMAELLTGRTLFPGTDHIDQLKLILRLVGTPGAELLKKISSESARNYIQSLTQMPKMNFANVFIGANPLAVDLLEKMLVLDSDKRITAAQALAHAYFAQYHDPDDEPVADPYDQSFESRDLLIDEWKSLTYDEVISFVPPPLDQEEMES", "experiment": "Inhibition of MAPK14 Kinase Activity", "details": "Monocyte", "units": {"IC50": "nM"}, "values": [{"smiles": "Cc1cc(OCc2ccc(F)cc2F)c(Br)c(=O)n1Cc1ccc(C(=O)NCCO)o1", "IC50": "1000 to 25000"}, {"smiles": "Cc1cc(OCc2ccc(F)cc2F)c(Br)c(=O)n1-c1ccc(CNC(=O)C(C)(C)O)cc1", "IC50": "< 1000"}, {"smiles": "Cc1cc(OCc2ccc(F)cc2F)c(Br)c(=O)n1-c1ccc(C(=O)N(C)C)cc1C(F)(F)F", "IC50": "1000 to 25000"}, {"smiles": "Cc1cc(OCc2ccc(F)cc2C(N)=O)c(Br)c(=O)n1-c1c(F)cccc1F", "IC50": "25000 to 100000"}, {"smiles": "CNC(=O)c1ccc(C(C)n2c(C)cc(OCc3ccc(F)cc3F)c(Br)c2=O)cc1", "note": "(stereo not given)", "IC50": "1000 to 25000"}, {"smiles": "CNCC(=O)NCc1ccc(Cn2c(C)cc(OCc3ccc(F)cc3F)c(Br)c2=O)cc1", "IC50": "< 1000"}, {"smiles": "Cc1cc(OCc2ccc(F)cc2F)c(Br)c(=O)n1Cc1cnc(N(C)C)nc1", "IC50": "< 1000"}, {"smiles": "Cc1cc(OCc2ccc(F)cc2F)c(Br)c(=O)n1-c1c(F)cc(/C=C/CO)cc1F", "IC50": "< 1000"}, {"smiles": "Cc1cc(OCc2ccc(F)cc2F)c(Br)c(=O)n1Cc1ccc(C(=O)N2CCOCC2)o1", "IC50": "< 1000"}, {"smiles": "Cc1ccc(C(N)=O)cc1-n1c(C)cc(OCc2ccc(F)cc2CNC(=O)NC2CC2)c(Cl)c1=O", "IC50": "< 1000"}, {"smiles": "Cc1cc(OCc2ccc(F)cc2F)c(Br)c(=O)n1Cc1cc[nH]n1", "IC50": "< 1000"}, {"smiles": "Cc1cc(OCc2ccc(F)cc2F)c(Cl)c(=O)n1Cc1ccc2c(c1)CN(C(=O)C(C)(C)O)C2", "IC50": "< 1000"}, {"smiles": "Cc1cc(OCc2ccc(F)cc2F)c(Br)c(=O)n1-c1c(F)cc(C(O)COC(N)=O)cc1F", "note": "(stereo not given)", "IC50": "< 1000"}, {"smiles": "Cc1ccc(C(N)=O)cc1-n1c(C)cc(OCc2ccc(F)cc2F)c(Br)c1=O", "IC50": "< 1000"}, {"smiles": "Cc1cc(OCc2ccc(F)cc2F)c(Br)c(=O)n1Cc1cnc(CNC(=O)CN)nc1", "IC50": "< 1000"}]}]}
